What was measured:
Assay in all cases: relative viability (nuclei count vs DMSO), 5 days (fraction); higher = more cells survive
[1] = system: NCI-H650
Summary of the method: (§1)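 Lung cancer cell lines in 1536-well plates got either a single drug or a fixed anchor-drug dose together with five library-drug doses (not always all listed) in √10 steps, by pin tool, on the day after seeding. Nuclei were counted after 5 days, and relative viability is the treated-to-vehicle ratio of nuclei counts. Values are medians of duplicate plates.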

[2] = system: NCI-H322M
Summary of the method: as §1

[3] = system: EPLC-272H
Summary of the method: as §1

[4] = system: SK-MES-1
Summary of the method: as §1

[5] = system: NCI-H2023
Summary of the method: as §1

[6] = system: NCI-H2087
Summary of the method: as §1

[7] = system: LCLC-103H
Summary of the method: as §1

[8] = system: UMC-11
Summary of the method: as §1

[9] = system: NCI-H1563
Summary of the method: as §1

[10] = system: NCI-H1651
Summary of the method: as §1

[11] = system: ChaGo-K-1
Summary of the method: as §1

[12] = system: NCI-H520
Summary of the method: as §1

[13] = system: NCI-H1395
Summary of the method: as §1

[14] = system: NCI-H1355
Summary of the method: as §1

[15] = system: HCC-827
Summary of the method: as §1

[16] = system: NCI-H1944
Summary of the method: as §1

[17] = system: HCC-44
Summary of the method: as §1

[18] = system: NCI-H1793
Summary of the method: as §1

[19] = system: NCI-H2085
Summary of the method: as §1

[20] = system: LCLC-97TM1
Summary of the method: as §1

[21] = system: EMC-BAC-2
Summary of the method: as §1

[22] = system: H3255
Summary of the method: as §1

[23] = system: NCI-H2405
Summary of the method: as §1

`C=C1C(=O)O[C@@H](CCCCCCCC)[C@@H]1C(=O)O` [C-75] + N=C(N)NC(=N)NCCc1ccccc1 [Phenformin] (partner 250 µM) was tested. Which relative viability ([1]; first compound 0.08 µM) did it give?
Its relative viability is 0.474.

And the relative viability ([1]; first compound 0.253 µM)?
Its relative viability is 0.409.

And the relative viability ([1]; first compound 0.8 µM)?
Its relative viability is 0.371.

What about the relative viability ([1]; first compound 2.53 µM) of the same compound?
The relative viability was 0.4.

And the relative viability ([1]; first compound 8 µM)?
Its relative viability is 0.41.

What about the relative viability ([2]; first compound 0.08 µM) of the same compound?
Its relative viability is 0.749.

And the relative viability ([2]; first compound 0.253 µM)?
Its relative viability is 0.886.

What about the relative viability ([2]; first compound 0.8 µM) of the same compound?
The relative viability was 0.781.

What about the relative viability ([2]; first compound 2.53 µM) of the same compound?
The relative viability was 0.718.

And the relative viability ([2]; first compound 8 µM)?
Its relative viability is 0.789.

What about the relative viability ([3]; first compound 0.08 µM) of the same compound?
Its relative viability is 0.33.

What about the relative viability ([3]; first compound 0.253 µM) of the same compound?
Its relative viability is 0.281.

And the relative viability ([3]; first compound 0.8 µM)?
The relative viability was 0.276.

What about the relative viability ([3]; first compound 2.53 µM) of the same compound?
The relative viability was 0.28.

What about the relative viability ([3]; first compound 8 µM) of the same compound?
The relative viability was 0.271.

And the relative viability ([4]; first compound 0.08 µM)?
Its relative viability is 0.652.

And the relative viability ([4]; first compound 0.253 µM)?
Its relative viability is 0.697.

And the relative viability ([4]; first compound 0.8 µM)?
Its relative viability is 0.636.

What about the relative viability ([4]; first compound 2.53 µM) of the same compound?
Its relative viability is 0.658.

And the relative viability ([4]; first compound 8 µM)?
The relative viability was 0.702.

What about the relative viability ([5]; first compound 0.08 µM) of the same compound?
Its relative viability is 0.394.

What about the relative viability ([5]; first compound 0.253 µM) of the same compound?
The relative viability was 0.502.

What about the relative viability ([5]; first compound 0.8 µM) of the same compound?
Its relative viability is 0.367.

What about the relative viability ([5]; first compound 2.53 µM) of the same compound?
Its relative viability is 0.384.

And the relative viability ([5]; first compound 8 µM)?
Its relative viability is 0.372.

What about the relative viability ([6]; first compound 0.08 µM) of the same compound?
The relative viability was 0.409.

What about the relative viability ([6]; first compound 0.253 µM) of the same compound?
Its relative viability is 0.597.

And the relative viability ([6]; first compound 0.8 µM)?
The relative viability was 0.428.

What about the relative viability ([6]; first compound 2.53 µM) of the same compound?
The relative viability was 0.279.

What about the relative viability ([6]; first compound 8 µM) of the same compound?
The relative viability was 0.48.

What about the relative viability ([7]; first compound 0.08 µM) of the same compound?
The relative viability was 0.325.

What about the relative viability ([7]; first compound 0.253 µM) of the same compound?
The relative viability was 0.35.

And the relative viability ([7]; first compound 0.8 µM)?
The relative viability was 0.311.

What about the relative viability ([7]; first compound 2.53 µM) of the same compound?
Its relative viability is 0.253.

And the relative viability ([7]; first compound 8 µM)?
Its relative viability is 0.389.

What about the relative viability ([8]; first compound 0.08 µM) of the same compound?
Its relative viability is 0.335.

And the relative viability ([8]; first compound 0.253 µM)?
The relative viability was 0.346.

What about the relative viability ([8]; first compound 0.8 µM) of the same compound?
The relative viability was 0.325.

What about the relative viability ([8]; first compound 2.53 µM) of the same compound?
Its relative viability is 0.278.

What about the relative viability ([8]; first compound 8 µM) of the same compound?
Its relative viability is 0.272.

What about the relative viability ([9]; first compound 0.08 µM) of the same compound?
The relative viability was 0.656.

What about the relative viability ([9]; first compound 0.253 µM) of the same compound?
Its relative viability is 0.64.

What about the relative viability ([9]; first compound 0.8 µM) of the same compound?
The relative viability was 0.655.

What about the relative viability ([9]; first compound 2.53 µM) of the same compound?
The relative viability was 0.63.

What about the relative viability ([9]; first compound 8 µM) of the same compound?
Its relative viability is 0.691.

What about the relative viability ([10]; first compound 0.08 µM) of the same compound?
Its relative viability is 0.35.

What about the relative viability ([10]; first compound 0.253 µM) of the same compound?
Its relative viability is 0.315.

And the relative viability ([10]; first compound 0.8 µM)?
The relative viability was 0.354.

What about the relative viability ([10]; first compound 2.53 µM) of the same compound?
Its relative viability is 0.306.

What about the relative viability ([10]; first compound 8 µM) of the same compound?
Its relative viability is 0.291.

And the relative viability ([11]; first compound 0.08 µM)?
Its relative viability is 0.461.

And the relative viability ([11]; first compound 0.253 µM)?
The relative viability was 0.538.

And the relative viability ([11]; first compound 0.8 µM)?
The relative viability was 0.453.

What about the relative viability ([11]; first compound 2.53 µM) of the same compound?
Its relative viability is 0.414.

And the relative viability ([11]; first compound 8 µM)?
Its relative viability is 0.494.

What about the relative viability ([12]; first compound 0.08 µM) of the same compound?
Its relative viability is 0.539.

And the relative viability ([12]; first compound 0.253 µM)?
Its relative viability is 0.747.

What about the relative viability ([12]; first compound 0.8 µM) of the same compound?
Its relative viability is 0.464.

What about the relative viability ([12]; first compound 2.53 µM) of the same compound?
The relative viability was 0.389.

And the relative viability ([12]; first compound 8 µM)?
Its relative viability is 0.482.

What about the relative viability ([13]; first compound 0.08 µM) of the same compound?
Its relative viability is 0.452.

And the relative viability ([13]; first compound 0.253 µM)?
Its relative viability is 0.454.

What about the relative viability ([13]; first compound 0.8 µM) of the same compound?
The relative viability was 0.435.

What about the relative viability ([13]; first compound 2.53 µM) of the same compound?
Its relative viability is 0.45.

What about the relative viability ([13]; first compound 8 µM) of the same compound?
Its relative viability is 0.514.

And the relative viability ([14]; first compound 0.08 µM)?
Its relative viability is 0.488.

What about the relative viability ([14]; first compound 0.253 µM) of the same compound?
Its relative viability is 0.444.

What about the relative viability ([14]; first compound 0.8 µM) of the same compound?
Its relative viability is 0.452.

What about the relative viability ([14]; first compound 2.53 µM) of the same compound?
The relative viability was 0.401.

What about the relative viability ([14]; first compound 8 µM) of the same compound?
Its relative viability is 0.484.

And the relative viability ([15]; first compound 0.08 µM)?
Its relative viability is 0.428.

What about the relative viability ([15]; first compound 0.253 µM) of the same compound?
The relative viability was 0.391.

And the relative viability ([15]; first compound 0.8 µM)?
Its relative viability is 0.38.

What about the relative viability ([15]; first compound 2.53 µM) of the same compound?
The relative viability was 0.36.

What about the relative viability ([15]; first compound 8 µM) of the same compound?
Its relative viability is 0.42.

What about the relative viability ([16]; first compound 0.08 µM) of the same compound?
Its relative viability is 0.21.

What about the relative viability ([16]; first compound 0.253 µM) of the same compound?
The relative viability was 0.163.

What about the relative viability ([16]; first compound 0.8 µM) of the same compound?
The relative viability was 0.179.

And the relative viability ([16]; first compound 8 µM)?
The relative viability was 0.187.

What about the relative viability ([17]; first compound 0.08 µM) of the same compound?
Its relative viability is 0.294.

What about the relative viability ([17]; first compound 0.253 µM) of the same compound?
Its relative viability is 0.185.

And the relative viability ([17]; first compound 0.8 µM)?
The relative viability was 0.176.

What about the relative viability ([17]; first compound 2.53 µM) of the same compound?
Its relative viability is 0.157.

And the relative viability ([17]; first compound 8 µM)?
The relative viability was 0.142.

And the relative viability ([18]; first compound 0.08 µM)?
The relative viability was 0.365.

What about the relative viability ([18]; first compound 0.253 µM) of the same compound?
The relative viability was 0.362.

And the relative viability ([18]; first compound 0.8 µM)?
Its relative viability is 0.287.

And the relative viability ([18]; first compound 2.53 µM)?
The relative viability was 0.29.

What about the relative viability ([18]; first compound 8 µM) of the same compound?
Its relative viability is 0.486.

What about the relative viability ([19]; first compound 0.08 µM) of the same compound?
Its relative viability is 0.827.

What about the relative viability ([19]; first compound 0.253 µM) of the same compound?
The relative viability was 0.693.

What about the relative viability ([19]; first compound 0.8 µM) of the same compound?
Its relative viability is 0.629.

What about the relative viability ([19]; first compound 2.53 µM) of the same compound?
The relative viability was 0.63.

And the relative viability ([19]; first compound 8 µM)?
The relative viability was 0.67.

What about the relative viability ([20]; first compound 0.08 µM) of the same compound?
The relative viability was 0.421.

What about the relative viability ([20]; first compound 0.253 µM) of the same compound?
The relative viability was 0.487.

And the relative viability ([20]; first compound 0.8 µM)?
The relative viability was 0.355.

What about the relative viability ([20]; first compound 2.53 µM) of the same compound?
The relative viability was 0.372.

And the relative viability ([20]; first compound 8 µM)?
The relative viability was 0.431.

And the relative viability ([21]; first compound 0.08 µM)?
The relative viability was 0.58.

And the relative viability ([21]; first compound 0.253 µM)?
Its relative viability is 0.478.

And the relative viability ([21]; first compound 0.8 µM)?
The relative viability was 0.48.

And the relative viability ([21]; first compound 2.53 µM)?
Its relative viability is 0.42.

What about the relative viability ([21]; first compound 8 µM) of the same compound?
The relative viability was 0.448.

And the relative viability ([22]; first compound 0.08 µM)?
Its relative viability is 0.345.

And the relative viability ([22]; first compound 0.253 µM)?
Its relative viability is 0.352.

What about the relative viability ([22]; first compound 0.8 µM) of the same compound?
The relative viability was 0.392.

And the relative viability ([22]; first compound 2.53 µM)?
Its relative viability is 0.337.

What about the relative viability ([22]; first compound 8 µM) of the same compound?
The relative viability was 0.331.

And the relative viability ([23]; first compound 0.08 µM)?
Its relative viability is 0.387.

And the relative viability ([23]; first compound 0.253 µM)?
The relative viability was 0.331.

And the relative viability ([23]; first compound 0.8 µM)?
Its relative viability is 0.405.

What about the relative viability ([23]; first compound 2.53 µM) of the same compound?
The relative viability was 0.368.

What about the relative viability ([23]; first compound 8 µM) of the same compound?
Its relative viability is 0.45.

Reference: the supplement of paper PMC10307832
